Measured values as given in patent publication US5807850A, “Therapeutic agent for osteoporosis and triazepine compound” (Japan Tobacco, Inc., priority 1994, dated 1998).
Counter-ions that a name gives are not always drawn.

How the values were obtained:
[1] = test system: lumbar spine (L4-5) vertebral body of ovariectomized rats; experiment: Suppression of bone mass decrease in ovariectomized rats (osteoporosis model rats); assay type: in vivo, Female SD rats; details: 12 weeks, Control 46.1 ± 0.5, Normal control 56.3 ± 1.4
Method: Experimental Example 2 suppression of bone mass decrease
The suppressive effect of the compound of the present invention on the bone mass decrease was tested using the ovariectomized rats (osteoporosis model rats).
Female SD rats (13 weeks of age) were subjected to bilateral ovariectomies under anesthesia with Nembutal (50 mg/kg/ml, i.p.; Dai-Nippon Pharmaceutical). At the same time, a sham control group that was subjected to sham surgery without removing ovaries was prepared. The next day of the operation, the rats were grouped in such a manner that the bone mineral density (hereinafter abbreviated as BMD) of each group would reach an average. The BMD was determined by their bone mineral density of lumbar spine (L 4-5) that was measured with a DXA bone densitometer (DCS-600 R, Aloka) under ether anesthesia. The test compounds were suspended in 0.5% hydroxypropylmethylcellulose (hereinafter abbreviated as HPMC, Shin-Etsu Chemical Industries, Ltd.) and they were administered orally at the doses of 0.3, 1.0 and 3.0 mg/kg (5 ml/kg:) for 12 weeks daily from the day following the operation. As a positive control, 17 β-estradiol (Sigma) was dissolved in 5% benzyl alcohol and 95% corn oil, and administered subcutaneously at a dose of 50 μg/kg (1 ml/kg) twice a week for 12 weeks. 0.5% HPMC was administered orally to the normal control and the control for 12 weeks at 5 ml/kg. The next day of the final administration, the rats were exsanguinated and killed under ether anesthesia and the lumbar spine (L4-5) was recovered. The soft tissues and processes were removed from the obtained lumbar spine and BMD of the vertebral body (L4-5) was determined with DCS-600 R (Aloka).
The results are shown by mean±S.E. of the respective groups and the statistical evaluations of the effect of respective groups were made by one-way analysis of variance. The significance was ascribed at less than 5%.

[2] = test system: calvaria; experiment: Inhibition of bone resorption (45Ca release from calvaria stimulated with hPTH (1-34), method of Raisz); assay type: cell-based, new born ICR mouse; details: Mus musculus, 72 h; 45Ca release, 50 nM hPTH (1-34), 3 days incubation; test concentrations 0.04, 0.2 and 1 μM; mean of 4 pairs; read-out: IC50 (inhibition of bone resorption)
Text: The determination of the inhibitory action on the bone resorption was basically in accordance with the method of Raisz [J. Clin. Invest. vol.
A new born ICR mouse (one or two days old) was intraperitoneally administered with 1.5μ Ci ^45 Ca (isotope of calcium as CaCl2 solution) and calvaria was aseptically removed the next day. The calvaria was split into two along the central suture line, and one of them was used as a control and the other was used as a test compound. The calvaria was preincubated at 37° C. for 2 days in BGJb medium [0.5 ml, Fitton-Jackson modification, GIBCO Laboratories, USA, containing bovine serum albumin 1 mg/ml] added with a test compound to the concentrations of 0.04 μM, 0.2 μM and 1 μM and then in the above-mentioned medium containing 50 nM hPTH (1-34) for further 3 days. After the incubation, the ^45 Ca radioactivity in the medium and the bone was determined, and the proportion (%) of ^45 Ca released from the bone into the medium was calculated by the following formula.
Using the bone obtained from the same mouse and treated in the same manner without adding a test compound, as a control, the proportion (%) relative to the control group was determined according to the following formula.

[3] = 0.3 mg/kg p.o., daily, n=9, mean ± S.E.
[4] = 1 mg/kg p.o., daily, n=8, mean ± S.E., *p < 0.05
[5] = 3 mg/kg p.o., daily, n=9, mean ± S.E., **p < 0.01

| Structure (SMILES) | IC50 [2] [nM] | also measured |
| --- | --- | --- |
| C[C@]12CC[C@@H]3c4ccc(O)cc4CC[C@H]3[C@@H]1CC[C@@H]2O [17 β-estradiol, reference compound] | – | BMD of body of vertebra ([1]; positive control, 0.05 mg/kg s.c., twice a week, n=8, mean ± S.E.): 53.5 ± 0.7 mg/cm^2 |
| Cc1nnc2n1-c1ccccc1C(c1ccc(Cl)cc1)=NN2Cc1cccnc1 [Example 54, 6-(4-Chlorophenyl)-1-methyl-4-(pyridin-3-ylmethyl)-4H-2,3,4,5,10b-pentaazabenz[e]azulene] | 540 | BMD of body of vertebra [1, 3]: 46.2 ± 0.4 mg/cm^2; BMD of body of vertebra [1, 4]: 47.3 ± 0.6 mg/cm^2; BMD of body of vertebra [1, 5]: 51.6 ± 0.4 mg/cm^2 |
| Cc1ccc2c(c1)-n1c(C)nnc1N(Cc1ccncc1)N=C2c1ccccc1 [Example 131, 1,9-Dimethyl-6-phenyl-4-(pyridin-4-ylmethyl)-4H-2,3,4,5,10b-pentaazabenz[e]azulene] | 990 | BMD of body of vertebra [1, 3]: 46.5 ± 0.8 mg/cm^2; BMD of body of vertebra [1, 4]: 48.5 ± 0.5 mg/cm^2; BMD of body of vertebra [1, 5]: 51.3 ± 0.9 mg/cm^2 |
| CCc1cc2c(s1)-n1c(C)nnc1N(Cc1cccnc1)N=C2c1ccc(Cl)cc1 [Example 141, 4-(4-Chlorophenyl)-2-ethyl-9-methyl-6-(pyridin-3-ylmethyl)-6H-5,6,7,8,9a-pentaazathien[2,3-e]azulene] | 680 | – |
| CCc1cc2c(s1)-n1c(C)nnc1N(Cc1ccncc1)N=C2c1ccc(Cl)cc1 [Example 142, 4-(4-Chlorophenyl)-2-ethyl-9-methyl-6-(pyridin-4-ylmethyl)-6H-5,6,7,8,9a-pentaazathien[2,3-e]azulene] | 450 | – |
| Cc1cc2c(s1)-n1c(C)nnc1N(Cc1cccnc1)N=C2c1ccccc1 [Example 143, 2,9-Dimethyl-4-phenyl-6-(pyridin-3-ylmethyl)-6H-5,6,7,8,9a-pentaazathien[2,3-e]azulene] | 340 | – |
| CCc1cc2c(s1)-n1c(C)nnc1N(Cc1cccnc1)N=C2c1ccccc1 [Example 147, 2-Ethyl-9-methyl-4-phenyl-6-(pyridin-3-ylmethyl)-6H-5,6,7,8,9a-pentaazathien[2,3-e]azulene] | 810 | – |
| CCc1cc2c(s1)-n1c(C)nnc1N(Cc1ccncc1)N=C2c1ccccc1 [Example 148, 2-Ethyl-9-methyl-4-phenyl-6-(pyridin-4-ylmethyl)-6H-5,6,7,8,9a-pentaazathien[2,3-e]azulene] | 680 | – |
| Cc1nnc2n1-c1ccccc1C(c1ccc(Cl)cc1)=NN2Cc1ccc(O)cc1 [Example 184, 6-(4-Chlorophenyl)-4-(4-hydroxybenzyl)-1-methyl-4H-2,3,4,5,10b-pentaazabenz[e]azulene] | 560 | – |
| CCOc1ccc(CN2N=C(c3ccc(Cl)cc3)c3ccccc3-n3c(C)nnc32)cc1 [Example 186, 6-(4-Chlorophenyl)-4-(4-ethoxybenzyl)-1-methyl-4H-2,3,4,5,10b-pentaazabenz[e]azulene] | 790 | – |
| Cc1nnc2n1-c1ccccc1C(c1ccc(Cl)cc1)=NN2Cc1ccc(N(C)C)cc1 [Example 191, 6-(4-Chlorophenyl)-4-(4-dimethylaminobenzyl)-1-methyl-4H-2,3,4,5,10b-pentaazabenz[e]azulene hydrochloride] | 740 | – |

The next lines start with results.

| IC50 [2] [nM] | Structure (SMILES) | also measured |
| --- | --- | --- |
| 270 | Cc1cc2c(s1)-n1c(C)nnc1N(Cc1ccncc1)N=C2c1ccccc1 [Example 144, 2,9-Dimethyl-4-phenyl-6-(pyridin-4-ylmethyl)-6H-5,6,7,8,9a-pentaazathien[2,3-e]azulene] | – |
| 120 | Cc1sc2c(c1C)C(c1ccccc1)=NN(Cc1cccnc1)c1nnc(C)n1-2 [Example 145, 2,3,9-Trimethyl-4-phenyl-6-(pyridin-3-ylmethyl)-6H-5,6,7,8,9a-pentaazathien[2,3-e]azulene] | – |
| 100 | Cc1sc2c(c1C)C(c1ccccc1)=NN(Cc1ccncc1)c1nnc(C)n1-2 [Example 146, 2,3,9-Trimethyl-4-phenyl-6-(pyridin-4-ylmethyl)-6H-5,6,7,8,9a-pentaazathien[2,3-e]azulene] | – |
| 180 | COc1ccc(C2=NN(Cc3cccnc3)c3nnc(C)n3-c3sc(C)c(C)c32)cc1 [Example 149, 4-(4-Methoxyphenyl)-2,3,9-trimethyl-6-(pyridin-3-ylmethyl)-6H-5,6,7,8,9a-pentaazathien[2,3-e]azulene] | – |
| 29 | COc1ccc(C2=NN(Cc3ccncc3)c3nnc(C)n3-c3sc(C)c(C)c32)cc1 [Example 150, 4-(4-Methoxyphenyl)-2,3,9-trimethyl-6-(pyridin-4-ylmethyl)-6H-5,6,7,8,9a-pentaazathien[2,3-e]azulene] | – |
| 260 | CC(=O)Nc1ccc(CN2N=C(c3ccc(Cl)cc3)c3ccccc3-n3c(C)nnc32)cc1 [Example 189, 4-(4-Acetylaminobenzyl)-6-(4-chlorophenyl)-1-methyl-4H-2,3,4,5,10b-pentaazabenz[e]azulene] | – |
